The record followed here is patent publication US12459908B2, “Alpha, beta unsaturated methacrylic esters with anti-inflammatory properties” (Sitryx Therapeutics Limited, priority 2020, dated 2025).

Bounds are passed on as bounds.

For series [1], the system named is IL-1β. The experiment in a line: THP-1 AlphaLISA IL-1β cytokine inhibition assay (differentiated THP-1 cells). Format: cell-based. To be noted: Homo sapiens, LPS 24 hr then Nigericin 1 hour, class symbols. As for the experimental part: Biological Example 1—THP-1 AlphaLISA IL-1β
Measuring Inhibitory Effects on IL-1, Cytokine Output from THP-1s
(§1) The cytokine inhibition profiles of compounds of formula (I) were determined in a differentiated THP-1 cell assay. All assays were performed in RPMI-1640 growth medium (Gibco), supplemented with 10% fetal bovine serum (FBS; Gibco), 1% penicillin-streptomycin and 1% sodium pyruvate unless specified otherwise. The IL-1p cytokine inhibition assay was run in a background of differentiated THP-1 cells as described below. All reagents described were from Sigma-Aldrich unless specified otherwise. Compounds were prepared as 10 mM DMSO stocks.
(§2) THP-1 cells were expanded as a suspension up to 80% confluence in appropriate growth medium. Cells were harvested, suspended, and treated with an appropriate concentration of phorbol 12-myristate 13-acetate (PMA) over a 72 hr period (37° C./5% CO2).
(§3) Following 72 hrs of THP-1 cell incubation, cellular medium was removed and replaced with fresh growth media containing 1% of FBS. Working concentrations of compounds were prepared separately in 10% FBS treated growth medium and pre-incubated with the cells for 30 minutes (37° C./5% CO2). Following the 30 minute compound pre-incubation, THP-1s were treated with an appropriate concentration of LPS and the cells were subsequently incubated for a 24 hr period (37° C./5% CO2). An appropriate final concentration of Nigericin was then dispensed into the THP-1 plates and incubated for 1 hour (37° C./5% CO2) before THP-1 supernatants were harvested and collected in separate polypropylene 96-well holding plates.
(§4) Reagents from an IL-1β and IL-6 commercial kit (Perkin Elmer) were prepared and run according to the manufacturer's instructions. Subsequently, fluorescence signal detection in a microplate reader was measured (EnVision® Multilabel Reader, Perkin Elmer).
(§5) Percentage inhibition was calculated per cytokine by normalising the sample data to the high and low controls used within each plate (+/−LPS respectively). Percentage inhibition was then plotted against compound concentration and the 50% inhibitory concentration (IC50) was determined from the resultant concentration-response curve.
(In general: In Alpha technology, singlet oxygen from a donor bead excites a nearby acceptor bead.)

For series [2], the system named is IL-6. The experiment in a line: THP-1 AlphaLISA IL-6 cytokine inhibition assay (differentiated THP-1 cells). Format: cell-based. To be noted: Homo sapiens, LPS 24 hr then Nigericin 1 hour, class symbols. As for the experimental part:
as §1, §2, §3, §4, §5

The subject of series [3] is NRF2. The experiment in a line: NRF2 activation assay (DiscoverX PathHunter NRF2 translocation kit, U2OS cells). Format: cell-based. As to conditions: Homo sapiens, 6 hours, class symbols; for Emax: normalised to DMF high control. As for the experimental part: Biological Example 2—NRF2 Activation Assay
Measuring Compound Activation Effects on the Anti-Inflammatory Transcription Factor NRF2 in DiscoverX PathHunter NRF2 Translocation Kit
Potency and efficacy of compounds of formula (I) against the target of interest to activate NRF2 (nuclear factor erythroid 2-related factor 2) were determined using the PathHunter NRF2 translocation kit (DiscoverX). The NRF2 translocation assay was run using an engineered recombinant cell line, utilising enzyme fragment complementation to determine activation of the Keap1-NRF2 protein complex and subsequent translocation of NRF2 into the nucleus. Enzyme activity was quantified using a chemiluminescent substrate consumed following the formation of a functional enzyme upon PK-tagged NRF2 translocation into the nucleus.
Additionally, a defined concentration of DMF was used as the ‘High’ control to normalise test compound activation responses to.
U2OS PathHunter eXpress cells were thawed from frozen prior to plating. Following plating, U2OS cells were incubated for 24 hrs (37° C./5% CO2) in commercial kit provided cell medium.
Following 24 hrs of incubation, plated U2OS cells were directly treated with an appropriate final concentration of compound. […]
Following compound treatment, the U2OS plates were incubated for a further 6 hours (37° C./5% CO2) before detection reagent from the PathHunter NRF2 commercial kit was prepared and added to test plates according to the manufacturer's instructions. Subsequently, the luminescence signal detection was measured in a microplate reader (PHERAstar®, BMG Labtech).
Percentage activation was calculated by normalising the sample data to the high and low controls used within each plate (+/−DMF). Percentage activation/response was then plotted against compound concentration and the 50% activation concentration ([…]) was determined from the plotted concentration-response curve.

Series [4] can be described thus: Hepatocyte stability assay, mouse cryopreserved hepatocytes. As to conditions: cryopreserved hepatocytes; Mouse hepatocytes, 10 μM, 60 min; class symbols; read-out: T½. Format: in vitro ADME. An excerpt: (§6) Biological Example 3—Hepatocyte Stability Assay
(§7) Defrosted cryo-preserved hepatocytes (viability >70%) were used to determine the metabolic stability of a compound via calculation of intrinsic clearance (CIint; a measure of the removal of a compound from the liver in the absence of blood flow and cell binding). Clearance data are particularly important for in vitro work as they can be used in combination with in vivo data to predict the half-life and oral bioavailability of a drug.
(§8) The metabolic stability in hepatocytes assay involves a time-dependent reaction using both positive and negative controls. The cells were pre-incubated at 37° C. and spiked with test compound (and positive control); samples taken at pre-determined time intervals were analysed to monitor the change in concentration of the initial drug compound over 60 minutes. A buffer incubation reaction (with no hepatocytes present) acted as a negative control and two cocktail solutions, containing compounds with known high and low clearance values (verapamil/7-hydroxycoumarin and propranolol/diltiazem), acted as positive controls. • 1. The assay was run with a cell concentration of 0.5×10^6 cells/mL in Leibovitz buffer. • 2. All compounds and controls were run in duplicate. • 3. Compound concentration was 10 μM. • 4. All compounds and controls were incubated with both cells and buffer to show turnover was due to hepatic metabolism. • 5. All wells on the incubation plate had 326.7 μL of either cells or buffer added. • 6. Prior to assay, cell and buffer-only incubation plates were preincubated for 10 mins at 37° C. • 7. The assay was initiated by adding compounds, 3.3 μL of 1 mM in 10% DMSO-90% Buffer; final DMSO concentration is 0.1%. • 8. Samples were taken at regular timepoints (0, 5, 10, 20, 40, 60 min) until 60 mins. • 9. Sample volume was 40 μL and was added to 160 μL of crash solvent (acetonitrile with internal standard) and stored on ice. • 10. At the end of the assay, the crash plates were centrifuged at 3500 rpm for 20 mins at 4° C. • 11. 80 μL of clear supernatant was removed and mixed with 80 μL of deionised water before being analysed by LC-MS/MS.
(§9) Raw LC-MS/MS data was exported to, and analysed in, Microsoft Excel for determination of intrinsic clearance. The percentage remaining of a compound was monitored using the peak area of the initial concentration as 100%. Intrinsic clearance and half-life values were calculated using a graph of the natural log of percentage remaining versus the time of reaction in minutes. Half-life (min) and intrinsic clearance (CIint in μL min^−1 10^−6 cells) values were calculated using the gradient of the graph (the elimination rate constant, k) and Equations 1 and 2.

Series [5] concerns cryo-preserved hepatocytes. Described as above. Format: in vitro ADME. As to conditions: Mouse hepatocytes, 10 μM, 60 min; class symbols.
Source text: as §6, §7, §8, §9

Series [6] is described as follows: Hepatocyte stability assay, human cryopreserved hepatocytes. Format: in vitro ADME. To be noted: cryopreserved hepatocytes; Human hepatocytes, 10 μM, 60 min; class symbols; read-out: T½.
Source text: as §6, §7, §8, §9

By IC50 is commonly meant the concentration needed to halve the response being measured. A high value points to a need for much substance. The term EC50 denotes the concentration that produces a half-maximal response. Read a low EC50 as higher potency in that assay. One may read the Emax as the size of the effect at its maximum, as opposed to the concentration needed. As for `C=C(Cc1nc(CCCCCCCC)no1)C(=O)O[C@@H](CC(=O)O)C(F)(F)F` [Example 6, (S)-4,4,4-trifluoro-3-((2-((3-octyl-1,2,4-oxadiazol-5-yl)methyl)acryloyl)oxy)butanoic acid], the IC50 in series [1] and in series [2] was < 5 µM each time. Besides, the half-maximal effective concentration (EC50) in series [3] was < 5 µM. Also, the Emax in series [3] was > 250%. Besides, the half-life at 10 μM in series [4] was ≤ 4 min; in series [6] it was 5 to 59 min. The Clint result in series [5] is given as “+ (+ means ≥351)”.

As for `C=C(Cc1nc(C2(c3ccc(C(F)(F)F)cc3)CC2)no1)C(=O)OCC(=O)O` [Example 4, 2-((2-((3-(1-(4-(trifluoromethyl)phenyl)cyclopropyl)-1,2,4-oxadiazol-5-yl)methyl)acryloyl)oxy)acetic acid], the IC50 was < 5 µM in series [1] and 5 to 10 µM in series [2]. In series [3], this compound yielded an EC50 of 5 to 10 µM. This compound yielded a maximum response (Emax) in series [3] of 135 to 165%. Further, the half-life at 10 μM in series [4] was in the range of 5 to 11 min; in series [6] it was 60 to 100 min. Also, the Clint entry in series [5] is recorded as “++ (++ means 95-350)”.

As for `C=C(Cc1nc(C2(c3ccc(OC(F)(F)F)cc3)CC2)no1)C(=O)OCC(=O)O` [Example 19, 2-((2-((3-(1-(4-(trifluoromethoxy)phenyl)cyclopropyl)-1,2,4-oxadiazol-5-yl)methyl)acryloyl)oxy)acetic acid], the IC50 in series [1] and in series [2] was < 5 µM each time. The same compound registered an EC50 in series [3] of 5 to 10 µM. The compound also returned an Emax in series [3] of 166 to 250%. In addition, the half-life at 10 μM is 5 to 11 min in series [4] and 5 to 59 min in series [6]. In series [5], the Clint result was “++ (++ means 95-350)”.

Regarding `C=C(Cc1nc(Cc2ccc(CCCC)cc2)no1)C(=O)O[C@@H](CC(=O)O)C(F)(F)F` [Example 10, (S)-3-((2-((3-(4-butylbenzyl)-1,2,4-oxadiazol-5-yl)methyl)acryloyl)oxy)-4,4,4-trifluorobutanoic acid], the IC50 in series [1] and in series [2] was < 5 µM each time. The EC50 in series [3] was < 5 µM. Further, the Emax in series [3] was in the range of 135 to 165%. The half-life at 10 μM was ≤ 4 min in series [4] and < 5 min in series [6]. Moreover, in series [5], the Clint entry is on record as “+ (+ means ≥351)”.

`C=C(Cc1nc(C2(c3ccc(C(F)(F)F)cc3)CC2)no1)C(=O)O[C@@H](CC(=O)O)C(F)(F)F` [Example 8, (S)-4,4,4-trifluoro-3-((2-((3-(1-(4-(trifluoromethyl)phenyl)cyclopropyl)-1,2,4-oxadiazol-5-yl)methyl)acryloyl)oxy)butanoic acid]: the IC50 in series [1] and in series [2] was < 5 µM in each case. Also, the EC50 in series [3] is < 5 µM. Besides, the Emax in series [3] lay within 135 to 165%. The half-life at 10 μM in series [4] is ≤ 4 min; in series [6], 5 to 59 min. Also, the Clint result in series [5] was “+ (+ means ≥351)”.

Turning to `C=C(Cc1nc(C2(c3ccc(Br)cc3)CC2)no1)C(=O)OCC(=O)O` [Example 18, 2-((2-((3-(1-(4-bromophenyl)cyclopropyl)-1,2,4-oxadiazol-5-yl)methyl)acryloyl)oxy)acetic acid], the IC50 in series [1] and in series [2] was < 5 µM throughout. In series [3], this compound showed an EC50 of 5 to 10 µM. This compound showed an Emax in series [3] of 166 to 250%. The results for the half-life at 10 μM in series [4] and in series [6] were 5 to 11 min and 60 to 100 min, respectively. Also, the Clint result in series [5] is “++ (++ means 95-350)”.

Turning to `C=C(Cc1nc(Cc2ccc(CCCC)cc2)no1)C(=O)OCC(=O)O` [Example 13, 2-((2-((3-(4-butylbenzyl)-1,2,4-oxadiazol-5-yl)methyl)acryloyl)oxy)acetic acid], the IC50 in series [1] and in series [2] was < 5 µM in each case. Also, the EC50 in series [3] is < 5 µM. The Emax in series [3] was in the range of 166 to 250%. Further, the values for the half-life at 10 μM in series [4] and in series [6] were ≤ 4 min and 5 to 59 min, respectively. In addition, in series [5], the Clint result is “+ (+ means ≥351)”.
